From ChEMBL document CHEMBL1909046, “DrugMatrix in vitro pharmacology data”

What was measured:
[1] = DRUGMATRIX: Phosphodiesterase PDE3 enzyme inhibition (substrate: [3H]cAMP + cAMP); type: tissue-based, Homo sapiens; settings: platelet; Not Active = under 50% inhibition at 10 µM
[2] = biological target: Protein kinase C alpha type (Homo sapiens, UniProt P17252); type: cell-based; settings: sf9;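 further: inhibition of PKCalpha kinase activity measured in an enzyme assay with histone as the phosphorylation substrate; in other assays of this panel Not Active means under 50% inhibition at 10 µM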
[3] = biological target: T1, Alpha-1B adrenergic receptor (Rattus norvegicus, UniProt P15823); experiment: DRUGMATRIX: Alpha-1B adrenergic receptor radioligand binding (ligand: prazosin); type: cell membranes, Wistar, Liver, Membrane; settings: Not Active = under 50% inhibition at 10 µM
T1 sequence (P15823 whole entry): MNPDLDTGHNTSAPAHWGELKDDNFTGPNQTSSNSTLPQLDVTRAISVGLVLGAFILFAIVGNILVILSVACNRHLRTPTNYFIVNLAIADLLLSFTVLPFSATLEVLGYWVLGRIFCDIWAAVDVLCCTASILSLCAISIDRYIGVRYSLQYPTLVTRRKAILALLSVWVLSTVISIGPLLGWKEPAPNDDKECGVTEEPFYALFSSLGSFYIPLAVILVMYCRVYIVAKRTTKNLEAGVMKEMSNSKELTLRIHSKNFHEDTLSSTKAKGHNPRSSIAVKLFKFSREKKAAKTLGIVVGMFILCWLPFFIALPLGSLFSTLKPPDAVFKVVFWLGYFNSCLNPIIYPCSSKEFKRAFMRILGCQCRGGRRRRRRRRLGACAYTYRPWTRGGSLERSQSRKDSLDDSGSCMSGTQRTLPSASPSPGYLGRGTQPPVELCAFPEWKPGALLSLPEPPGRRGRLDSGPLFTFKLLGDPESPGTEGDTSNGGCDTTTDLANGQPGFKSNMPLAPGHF

D(1A) dopamine receptor = D(1A) dopamine receptor (Homo sapiens, UniProt P21728); experiment: DRUGMATRIX: Dopamine D1 radioligand binding (ligand: [3H] SCH-23390); type: cell membranes, CHO, Membrane; settings: cho; Not Active = under 50% inhibition at 10 µM
D(1A) dopamine receptor, sequence (P21728 whole entry): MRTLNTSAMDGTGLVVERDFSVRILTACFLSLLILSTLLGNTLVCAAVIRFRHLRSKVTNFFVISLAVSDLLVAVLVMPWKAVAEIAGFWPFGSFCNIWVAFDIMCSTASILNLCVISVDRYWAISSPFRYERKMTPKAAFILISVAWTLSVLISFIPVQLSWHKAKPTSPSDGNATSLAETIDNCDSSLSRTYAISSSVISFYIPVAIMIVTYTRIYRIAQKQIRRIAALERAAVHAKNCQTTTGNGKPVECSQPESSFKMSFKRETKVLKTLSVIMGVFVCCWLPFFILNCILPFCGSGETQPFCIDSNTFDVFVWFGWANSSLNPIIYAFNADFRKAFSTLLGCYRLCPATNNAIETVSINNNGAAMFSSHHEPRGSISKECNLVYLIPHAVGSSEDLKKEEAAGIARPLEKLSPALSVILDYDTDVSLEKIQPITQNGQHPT

Cathepsin G = biological target: T2, Cathepsin G (Homo sapiens, UniProt P08311); type: tissue-based; settings: neutrophil;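 further: inhibition of Cathepsin G enzyme activity, tested on an AMC-conjugated peptide substrate; in other assays of this panel Not Active means under 50% inhibition at 10 µM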
T2 sequence (P08311 whole entry): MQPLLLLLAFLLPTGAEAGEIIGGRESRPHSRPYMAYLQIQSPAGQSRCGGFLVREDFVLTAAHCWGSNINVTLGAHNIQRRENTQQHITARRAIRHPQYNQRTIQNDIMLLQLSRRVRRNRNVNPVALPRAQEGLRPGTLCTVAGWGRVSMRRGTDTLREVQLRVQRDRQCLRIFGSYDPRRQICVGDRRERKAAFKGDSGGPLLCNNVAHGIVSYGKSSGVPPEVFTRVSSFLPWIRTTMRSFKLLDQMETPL

Substance-P receptor = Substance-P receptor (Homo sapiens, UniProt P25103); type: cell membranes, CHO, Membrane; settings: cho; further: in other assays of this panel Not Active means under 50% inhibition at 10 µM
Substance-P receptor, sequence (P25103 whole entry): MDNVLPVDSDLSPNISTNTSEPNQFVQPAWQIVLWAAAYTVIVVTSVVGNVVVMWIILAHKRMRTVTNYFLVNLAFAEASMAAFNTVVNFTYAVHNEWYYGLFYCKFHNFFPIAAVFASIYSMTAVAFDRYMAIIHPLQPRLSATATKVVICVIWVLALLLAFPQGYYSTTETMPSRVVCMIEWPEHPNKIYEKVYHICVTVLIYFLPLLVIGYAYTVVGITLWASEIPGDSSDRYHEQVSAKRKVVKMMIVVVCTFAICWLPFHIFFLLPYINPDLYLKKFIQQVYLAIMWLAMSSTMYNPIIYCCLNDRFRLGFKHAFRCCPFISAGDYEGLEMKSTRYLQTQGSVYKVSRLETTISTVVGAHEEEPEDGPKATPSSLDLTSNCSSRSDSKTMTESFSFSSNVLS

Cytochrome P450 2E1 = Cytochrome P450 2E1 (Homo sapiens, UniProt P05181); settings: bti-tn-5b1-4; further: in other assays of this panel Not Active means under 50% inhibition at 10 µM
Cytochrome P450 2E1, sequence (P05181 whole entry): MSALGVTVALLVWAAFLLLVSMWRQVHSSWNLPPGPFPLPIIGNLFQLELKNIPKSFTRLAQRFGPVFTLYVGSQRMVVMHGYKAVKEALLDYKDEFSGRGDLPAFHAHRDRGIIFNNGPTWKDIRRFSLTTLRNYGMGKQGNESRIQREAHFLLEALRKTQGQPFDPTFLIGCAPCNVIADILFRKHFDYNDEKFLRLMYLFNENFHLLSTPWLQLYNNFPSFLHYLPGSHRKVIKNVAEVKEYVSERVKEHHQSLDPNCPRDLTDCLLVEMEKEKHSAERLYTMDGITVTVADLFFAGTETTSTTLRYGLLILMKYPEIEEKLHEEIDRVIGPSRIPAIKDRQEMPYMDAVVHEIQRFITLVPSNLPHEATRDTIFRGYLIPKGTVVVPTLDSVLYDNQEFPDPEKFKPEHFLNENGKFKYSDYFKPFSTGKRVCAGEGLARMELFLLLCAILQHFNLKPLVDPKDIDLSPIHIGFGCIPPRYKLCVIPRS

O=C(c1ccccc1C(F)(F)F)N1CCC(Cc2ccccc2)CC1
Not Active: IC50 [1] | Ki [1] | IC50 [2] | IC50 [3] | IC50 (D(1A) dopamine receptor) | IC50 (Cathepsin G) | IC50 (Substance-P receptor) | IC50 (Cytochrome P450 2E1) | Ki (Cytochrome P450 2E1)

O=C/C=C/c1ccccc1
Not Active: IC50 [1] | Ki [1] | IC50 [2] | IC50 [3] | IC50 (D(1A) dopamine receptor) | IC50 (Cathepsin G) | IC50 (Substance-P receptor) | IC50 (Cytochrome P450 2E1) | Ki (Cytochrome P450 2E1)

Nc1ccc2c3c(cccc13)C(=O)NC2=O
Not Active: IC50 [1] | Ki [1] | IC50 [2] | IC50 [3] | IC50 (D(1A) dopamine receptor) | IC50 (Cathepsin G) | IC50 (Substance-P receptor) | IC50 (Cytochrome P450 2E1) | Ki (Cytochrome P450 2E1)

COc1ccc(C(=O)N2CCCC2=O)cc1
Not Active: IC50 [1] | Ki [1] | IC50 [2] | IC50 [3] | IC50 (D(1A) dopamine receptor) | IC50 (Cathepsin G) | IC50 (Substance-P receptor) | IC50 (Cytochrome P450 2E1) | Ki (Cytochrome P450 2E1)

O=c1cnn([C@@H]2O[C@H](CO)[C@@H](O)[C@H]2O)c(=O)[nH]1 [6-AZAURIDINE]
Not Active: IC50 [1] | Ki [1] | IC50 [2] | IC50 [3] | IC50 (D(1A) dopamine receptor) | IC50 (Cathepsin G) | IC50 (Substance-P receptor) | IC50 (Cytochrome P450 2E1) | Ki (Cytochrome P450 2E1)

CC[C@H](C)[C@H]1O[C@]2(C=C[C@@H]1C)C[C@@H]1C[C@@H](C/C=C(\C)[C@@H](O[C@H]3C[C@H](OC)[C@@H](O[C@H]4C[C@H](OC)[C@@H](O)[C@H](C)O4)[C@H](C)O3)[C@@H](C)/C=C/C=C3\CO[C@@H]4[C@H](O)C(C)=C[C@@H](C(=O)O1)[C@]34O)O2.CO[C@H]1C[C@H](O[C@H]2[C@H](C)O[C@@H](O[C@@H]3/C(C)=C/C[C@@H]4C[C@@H](C[C@]5(C=C[C@H](C)[C@@H](C(C)C)O5)O4)OC(=O)[C@@H]4C=C(C)[C@@H](O)[C@H]5OC/C(=C\C=C\[C@@H]3C)[C@]54O)C[C@@H]2OC)O[C@@H](C)[C@@H]1O [ABAMECTIN]
Not Active: IC50 [1] | Ki [1] | IC50 [2] | IC50 [3] | IC50 (Cathepsin G) | IC50 (Substance-P receptor) | IC50 (Cytochrome P450 2E1) | Ki (Cytochrome P450 2E1)

NCCCC(O)(P(=O)(O)O)P(=O)(O)O [ALENDRONIC ACID]
Not Active: IC50 [1] | Ki [1] | IC50 [2] | IC50 [3] | IC50 (D(1A) dopamine receptor) | IC50 (Cathepsin G) | IC50 (Substance-P receptor) | IC50 (Cytochrome P450 2E1) | Ki (Cytochrome P450 2E1)

Cc1nnc2n1-c1ccc(Cl)cc1C(c1ccccc1)=NC2 [ALPRAZOLAM]
Not Active: IC50 [1] | Ki [1] | Ki [2] | IC50 [3] | IC50 (D(1A) dopamine receptor) | IC50 (Cathepsin G) | IC50 (Substance-P receptor) | IC50 (Cytochrome P450 2E1) | Ki (Cytochrome P450 2E1)

Cn1c(=O)c2[nH]cnc2n(C)c1=O.Cn1c(=O)c2[nH]cnc2n(C)c1=O.NCCN [AMINOPHYLLINE]
Not Active: IC50 [1] | Ki [1] | IC50 [2] | IC50 [3] | IC50 (D(1A) dopamine receptor) | IC50 (Cathepsin G) | IC50 (Substance-P receptor) | IC50 (Cytochrome P450 2E1) | Ki (Cytochrome P450 2E1)

CCC1(CCC(C)C)C(=O)NC(=O)NC1=O [AMOBARBITAL]
Not Active: IC50 [1] | Ki [1] | IC50 [2] | IC50 [3] | IC50 (D(1A) dopamine receptor) | IC50 (Cathepsin G) | IC50 (Substance-P receptor) | IC50 (Cytochrome P450 2E1) | Ki (Cytochrome P450 2E1)

CC1(C)S[C@@H]2[C@H](NC(=O)[C@H](N)c3ccccc3)C(=O)N2[C@H]1C(=O)O [AMPICILLIN]
Not Active: IC50 [1] | Ki [1] | IC50 [2] | IC50 [3] | IC50 (D(1A) dopamine receptor) | IC50 (Cathepsin G) | IC50 (Substance-P receptor) | IC50 (Cytochrome P450 2E1) | Ki (Cytochrome P450 2E1)

COc1ccc(C2C(=O)c3ccccc3C2=O)cc1 [ANISINDIONE]
Not Active: IC50 [1] | Ki [1] | IC50 [2] | IC50 [3] | IC50 (D(1A) dopamine receptor) | IC50 (Cathepsin G) | IC50 (Substance-P receptor) | IC50 (Cytochrome P450 2E1) | Ki (Cytochrome P450 2E1)

O=C1O[C@H]([C@@H](O)CO)C(O)=C1O [ASCORBIC ACID]
Not Active: IC50 [1] | Ki [1] | IC50 [2] | IC50 [3] | IC50 (D(1A) dopamine receptor) | IC50 (Cathepsin G) | IC50 (Substance-P receptor) | IC50 (Cytochrome P450 2E1) | Ki (Cytochrome P450 2E1)

CN1[C@@H]2CC[C@H]1C[C@@H](OC(=O)C(CO)c1ccccc1)C2 (stereo partly specified) [ATROPINE]
Not Active: IC50 [1] | Ki [1] | IC50 [2] | IC50 [3] | IC50 (D(1A) dopamine receptor) | IC50 (Cathepsin G) | IC50 (Substance-P receptor) | IC50 (Cytochrome P450 2E1) | Ki (Cytochrome P450 2E1)

COc1ccc2cc3[n+](cc2c1OC)CCc1cc2c(cc1-3)OCO2.[Cl-] [BERBERINE CHLORIDE]
Not Active: IC50 [1] | Ki [1] | IC50 [2] | IC50 [3] | IC50 (Cathepsin G) | IC50 (Substance-P receptor) | IC50 (Cytochrome P450 2E1) | Ki (Cytochrome P450 2E1)

COc1cc([C@@H]2c3cc4c(cc3[C@@H](O[C@@H]3O[C@@H]5CO[C@@H](C)O[C@H]5[C@H](O)[C@H]3O)[C@H]3COC(=O)[C@H]23)OCO4)cc(OC)c1O [ETOPOSIDE]
Not Active: IC50 [1] | Ki [1] | IC50 [2] | IC50 [3] | IC50 (D(1A) dopamine receptor) | IC50 (Cathepsin G) | IC50 (Substance-P receptor)

COc1ccc2c3c1O[C@H]1C[C@@H](O)C=C[C@@]31CCN(C)C2 [GALANTAMINE]
Not Active: IC50 [1] | Ki [1] | IC50 [2] | IC50 [3] | IC50 (D(1A) dopamine receptor) | IC50 (Cathepsin G) | IC50 (Substance-P receptor)

CC(C)=CCC/C(C)=C/CO [GERANIOL]
Not Active: IC50 [1] | Ki [1] | IC50 [2] | IC50 [3] | IC50 (D(1A) dopamine receptor) | IC50 (Cathepsin G) | IC50 (Substance-P receptor)

CC(=O)[C@@]1(O)CC[C@H]2[C@@H]3CCC4=CC(=O)CC[C@]4(C)[C@H]3CC[C@@]21C [HYDROXYPROGESTERONE]
Not Active: IC50 [1] | Ki [1] | IC50 [2] | IC50 [3] | IC50 (D(1A) dopamine receptor) | IC50 (Cathepsin G) | IC50 (Substance-P receptor)

CC(C)NCC(O)COc1cccc2[nH]ccc12 (stereo unspecified) [PINDOLOL]
Not Active: IC50 [1] | Ki [1] | IC50 [2] | IC50 [3] | IC50 (D(1A) dopamine receptor) | IC50 (Cathepsin G) | IC50 (Substance-P receptor)

COc1cc2nc(N3CCN(C(=O)c4ccco4)CC3)nc(N)c2cc1OC [PRAZOSIN]
Not Active: IC50 [1] | Ki [1] | IC50 [2] | IC50 (D(1A) dopamine receptor) | IC50 (Cathepsin G) | IC50 (Substance-P receptor) | IC50 (Cytochrome P450 2E1) | Ki (Cytochrome P450 2E1)

CCCNCC(O)COc1ccccc1C(=O)CCc1ccccc1 (stereo unspecified) [PROPAFENONE]
Not Active: IC50 [1] | Ki [1] | IC50 [2] | IC50 (D(1A) dopamine receptor) | IC50 (Cathepsin G) | IC50 (Substance-P receptor) | IC50 (Cytochrome P450 2E1) | Ki (Cytochrome P450 2E1)

CC(C)c1cccc(C(C)C)c1O [PROPOFOL]
Not Active: IC50 [1] | Ki [1] | IC50 [2] | IC50 [3] | IC50 (D(1A) dopamine receptor) | IC50 (Cathepsin G) | IC50 (Substance-P receptor)
